Results reported in patent US10322111B2, “Chemokine receptor binding heterocyclic compounds with enhanced efficacy” (Genzyme Corporation, priority 2001, dated 2019).

Assays:
bone marrow stem cells = settings: rats, coronary artery ligation, administered within hours after cardiac ischemia, with or without rhG-CSF
Protocol: Adult rats are anesthetized and a thoracotomy is performed. The descending branch of the left coronary artery is ligated and not reperfused. […] Control rats are not treated with the reagents. The animals are monitored at one-week intervals by echocardiography and MRI. […] On the day of sacrifice, the hemodynamic functions are analyzed for left ventricle-end diastolic pressure, left ventricle-developed pressure and the rate of rise and fall of left ventricle pressure. The heart is then arrested in diastole and perfused via the abdominal aorta to flush residual blood from the vascular network of the myocardium. […] Several slices are made through the fixed heart and these are embedded in paraffin and sections. The sections are stained and analyzed by light microscopy to determine the size of the infarct in the treated and control animals. […] The immunohistochemical analysis involves the identification of transcription factors and surface markers expressed in early stages of myocyte development.

[1] = system: circulating CD34+ progenitor/stem cells; settings: single dose of 80 μg/kg, cited from earlier work

Structure (SMILES): c1cc(CN2CCCNCCNCCCNCC2)ccc1CN1CCCNCCNCCCNCC1 [AMD-3100]
- cardiac remodeling and scar formation (bone marrow stem cells): block to cardiac remodeling and scar formation
- mobilization of bone marrow stem cells (bone marrow stem cells): mobilizes bone marrow stem cells rapidly
- regeneration of myocardium (bone marrow stem cells): regeneration of the dead myocardium
- peak increase in circulating CD34+ progenitor/stem cells ([1]; 6 hour time point): 6 fold
- WBC count [1]: 17,000 μl
